From US20250368628A1, “METHODS AND COMPOUNDS FOR MODULATING INHERITED GENETIC DISEASES” (Design Therapeutics, Inc., priority 2022, published 2025) come the findings set out here.

pEC50: −log10 of the molar value.

By pEC50 is commonly meant −log10 of the EC50, conventionally taken in molar units.

The subject of one assay is Myotonic Dystrophy 1 affected patient fibroblasts (Coriel GM04602; 1600 CTG repeats). Briefly: DM1 foci reduction assay (EC50 assay; CAG10-Cy3 FISH, foci per nucleus). To be noted: Homo sapiens, Fibroblast; DM1 patient fibroblasts, 48 h treatment, foci per nucleus; read-out: DM1 EC50, 48 h. In kind it is cell-based. On the procedure: DM1 Foci Reduction Assay Methods
Myotonic Dystrophy 1 affected patient fibroblasts (Coriel GM04602; 1600 CTG repeats) and wild type fibroblasts (Coriell GM07492; control line) were cultured separately in Gibco DMEM (1×)+4.5 g/L D-Glucose+L-Glutamine+[…] Sodium Pyruvate, supplemented with 10% FBS and 1× Pen/Strep. Cells were maintained in an incubator at 37° C. and 5% CO2 with media refreshed every 48-72 hours.
At 90-95% confluency, both cell lines were harvested using Trypl-E then pelleted at 500×g for 5 minutes and were resuspended in fresh media. DM1 fibroblasts were seeded in Agilent 96 well black plates at a density of 5,000 cells/well in 200 μL media; and 8 wells were reserved for control fibroblasts. Plates were returned to incubator for 24 hours at 37° C. and 5% CO2.
Compounds were diluted from 10 mM stock to 1 mM in DMSO and then diluted once more to 6 μM (2× concentration) in media. Media was removed from all plates and cells were replenished with 100 μL media. Cells were treated in 8-point dose response, 1:3 fold dilution, 3 μM top dose via addition of 100 μL of 6 μM (2× concentration) compound to the 100 μL media with cells. Plates were returned to incubator for 48 hours at 37° C. and 5% CO2.
Following treatment, compounds were removed, and plates were washed with PBS, then cells were fixed in 75 μL 4% PFA solution for 20 minutes at room temperature. Plates were washed twice with PBS and twice with cold 70% ethanol before permeabilization with 250 μL cold 70% ethanol for 24-72 hours at −20° C.
After permeabilization, plates were washed once with a 30% formamide and 2×SSC buffer and rehydrated in that buffer for 15 minutes at room temperature. Cells were incubated overnight at 37° C. in 75 μL of a hybridization solution containing 30% formamide, 2×SSC, 25 mg/mL dextran sulfate, 2.5 mg/mL BSA, 0.2 μg/mL Herring sperm DNA, 2 mM vanadyl-ribonucleoside complex, and 5 nM CAG10-Cy3 probe.
Plates were washed once with 30% formamide in 2×SSC buffer, then twice with the buffer for 30 minutes at 37° C., 300 RPM in an incubating plate shaker. Cells were stained with 75 μL of 2.5 μg/mL DAPI in PBS for 5 minutes at room temperature. Plates were then washed twice with PBS and stored in 250 μL PBS. Plates were sealed with adhesive foil and wiped down with 70% ethanol.
Cells were imaged on a Cytation5 with a 20× objective sampling from 4 areas of each well. Nuclei were captured under DAPI channel and foci under RFP channel. Plates were analyzed on an average foci per nucleus per well basis.
Regarding `Cn1cc(NC(=O)c2nc(NC(=O)CCNC(=O)c3cc(NC(=O)c4nccn4C)cn3C)cn2C)cc1C(=O)NCCCC(=O)Nc1cn(C)c(C(=O)NCCC(=O)Nc2cc(C(=O)Nc3cn(C)c(C(=O)NCCOCCOCCOc4cncc(C(=O)O)c4)n3)n(C)c2)n1` [Compound B-216], the pEC50 is less than 6.00. The same measure, in the same setting: with `CCCNC(=O)CCNC(=O)c1nc(NC(=O)c2cc(NC(=O)CCNC(=O)c3nc(NC(=O)CCCNC(=O)c4cc(NC(=O)c5nc(NC(=O)CCNC(=O)c6cc(NC(=O)c7nccn7C)cn6C)cn5C)cn4CCCCCCNC(=O)CCOCCOCCOCCOCCOCCOC)cn3C)cn2C)cn1C` [Compound B-238] the figure was 6.30 to 7.00. Still for that read-out and setting: under `CCN(CC)CCCC[C@H](NC(=O)c1cccc(C(=O)O)c1)C(=O)NCCOCCOCCOCCOCCOCCNC(=O)c1nc(NC(=O)c2cc(NC(=O)CCNC(=O)c3nc(NC(=O)CCCNC(=O)c4cc(NC(=O)c5nc(NC(=O)CCNC(=O)c6cc(NC(=O)c7nccn7C)cn6C)cn5C)cn4C)cn3C)cn2C)cn1C` [Compound B-220] stands less than 6.00.

As for `CCCNC(=O)c1cc(NC(=O)c2nc(NC(=O)CCCNC(=O)c3cc(NC(=O)c4nc(NC(=O)CCNC(=O)c5cc(NC(=O)c6nccn6C)cn5C)cn4C)cn3C)cn2C)cn1C` [Compound B-67], the pEC50 was less than 6.00. The same measure, in the same setting: under `Cn1cc(NC(=O)c2nc(NC(=O)CCNC(=O)c3cc(NC(=O)c4nccn4C)cn3C)cn2C)cc1C(=O)NCCCC(=O)Nc1cn(C)c(C(=O)NCCC(=O)Nc2cc(C(=O)Nc3cn(C)c(C(=O)NCCC(=O)NCC#CC#CC4CCN(C(=O)OC(C)(C)C)CC4)n3)n(C)c2)n1` [Compound B-194] stands less than 6.00; under `COC(=O)c1cncc(OCCOCCOCCNC(=O)c2nc(NC(=O)c3cc(NC(=O)CCNC(=O)c4nc(NC(=O)CCCNC(=O)c5cc(NC(=O)c6nc(NC(=O)CCNC(=O)c7cc(NC(=O)c8nccn8C)cn7C)cn6C)cn5C)cn4C)cn3C)cn2C)c1` [Compound B-342], 6.30 to 7.00; under `Cn1cc(NC(=O)c2nc(NC(=O)CCNC(=O)c3cc(NC(=O)c4nccn4C)cn3C)cn2C)cc1C(=O)NCCCC(=O)Nc1cn(C)c(C(=O)NCCC(=O)Nc2cc(C(=O)Nc3cn(C)c(C(=O)NCCC(=O)N4CCC(C#CC5(O)CCN(C(=O)OCC6c7ccccc7-c7ccccc76)CC5)CC4)n3)n(C)c2)n1` [Compound B-197], 6.00 to 6.30.

Consider `Cn1cc(NC(=O)c2nc(NC(=O)CCNC(=O)c3cc(NC(=O)c4nccn4C)cn3C)cn2C)cc1C(=O)NCCCC(=O)Nc1cn(C)c(C(=O)NCCC(=O)Nc2cc(C(=O)Nc3cn(C)c(C(=O)NCCCN4CCC(C#CC#CC5CCNCC5)CC4)n3)n(C)c2)n1` [Compound B-250], for which the negative-log EC50 (pEC50) was 6.30 to 7.00. On the same count and under the same terms, with `CN(C)C(=O)c1nc(NC(=O)c2cc(NC(=O)CCNC(=O)c3nc(NC(=O)CCCNC(=O)c4cc(NC(=O)c5nc(NC(=O)CCNC(=O)c6cc(NC(=O)c7nccn7C)cn6C)cn5C)cn4C)cn3C)cn2C)cn1C` [Compound B-314] the figure was less than 6.00. Consider `CC(C)CCC(=O)N1CCC(C#CC#CC2CCN(CCCCCNC(=O)CCNC(=O)c3nc(NC(=O)c4cc(NC(=O)CCNC(=O)c5nc(NC(=O)CCCNC(=O)c6cc(NC(=O)c7nc(NC(=O)CCNC(=O)c8cc(NC(=O)c9nccn9C)cn8C)cn7C)cn6C)cn5C)cn4C)cn3C)CC2)CC1` [Compound B-184], for which the pEC50 is less than 6.00. The same measure, in the same setting: with `CN1CCC(CN2CCN(C(=O)CCNC(=O)c3nc(NC(=O)c4cc(NC(=O)CCNC(=O)c5nc(NC(=O)CCCNC(=O)c6cc(NC(=O)c7nc(NC(=O)CCNC(=O)c8cc(NC(=O)c9nccn9C)cn8C)cn7C)cn6C)cn5C)cn4C)cn3C)CC2)CC1` [Compound B-116] the figure was less than 6.00; with `CCCNC(=O)CCNC(=O)c1nc(NC(=O)c2cc(NC(=O)CCNC(=O)c3nc(NC(=O)CCCNC(=O)c4cc(NC(=O)c5nc(NC(=O)CCNC(=O)c6cc(NC(=O)c7nccn7C)cn6C)cn5C)cn4C)cn3C)cn2CCCCCN(CCOCCOCCOCCOC)CCOCCOCCOCCOC)cn1C` [Compound B-157], less than 6.00.

For `CCN(CC)CCCC[C@@H](NC(C)=O)C(=O)NCCNC(=O)CCNC(=O)c1nc(NC(=O)c2cc(NC(=O)CCNC(=O)c3nc(NC(=O)CCCNC(=O)c4cc(NC(=O)c5nc(NC(=O)CCNC(=O)c6cc(NC(=O)c7nccn7C)cn6C)cn5C)cn4C)cn3C)cn2C)cn1C` [Compound B-103], the pEC50 was less than 6.00. Still for that read-out and setting: with `CCCNC(=O)CCNC(=O)c1nc(NC(=O)c2cc(NC(=O)CCNC(=O)c3nc(NC(=O)CCCNC(=O)c4cc(NC(=O)c5nc(NC(=O)c6cc(NC(=O)CCNC(=O)c7nccn7C)cn6C)cn5C)cn4C)cn3C)cn2C)cn1C` [Compound B-83] the figure was less than 6.00. On the same count and under the same terms, with `Cn1cc(NC(=O)c2nc(NC(=O)CCNC(=O)c3cc(NC(=O)c4nccn4C)cn3C)cn2C)cc1C(=O)NCCCC(=O)Nc1cn(C)c(C(=O)NCCC(=O)Nc2cc(C(=O)Nc3cn(C)c(C(=O)NCCC(=O)NCC#CC#CC4CCNCC4)n3)n(C)c2)n1` [Compound B-137, 1-methyl-4-(3-{[1-methyl-4-(1-methylimidazole-2-amido)pyrrol-2-yl]formamido}propanamido)-N-(1-methyl-5-{[3-({1-methyl-2-[(2-{[1-methyl-5-({1-methyl-2-[(2-{[5-(piperidin-4-yl)penta-2,4-diyn-1-yl]carbamoyl}ethyl)carbamoyl]imidazol-4-yl}carbamoyl)pyrrol-3-yl]carbamoyl}ethyl)carbamoyl]imidazol-4-yl}carbamoyl)propyl]carbamoyl}pyrrol-3-yl)imidazole-2-carboxamide] the figure was less than 6.00. On the same count and under the same terms, with `Cn1cc(NC(=O)c2nc(NC(=O)CCNC(=O)c3cc(NC(=O)c4nccn4C)cn3C)cn2C)cc1C(=O)NCCCC(=O)Nc1cn(C)c(C(=O)NCCC(=O)Nc2cc(C(=O)Nc3cn(C)c(C(=O)NCCC(=O)N4CCC(C#CC#CC5CCN(CCCNC(=O)c6cccc(C(=O)O)c6)CC5)CC4)n3)n(C)c2)n1` [Compound B-225] the figure was 6.30 to 7.00; with `Cn1cc(NC(=O)c2nc(NC(=O)CCNC(=O)c3cc(NC(=O)c4nccn4C)cn3C)cn2C)cc1C(=O)NCCCC(=O)Nc1cn(C)c(C(=O)NCCC(=O)Nc2cc(C(=O)NCCOCCOCCOCCN3CCC(C#CC#CC4CCN(C(=O)OC(C)(C)C)CC4)CC3)n(C)c2)n1` [Compound B-210], less than 6.00; with `COCCOCCOCCOCCN(CCOCCOCCOCCOC)C(=O)CCCCn1cc(NC(=O)CCNC(=O)c2nc(NC(=O)CCCNC(=O)c3cc(NC(=O)c4nc(NC(=O)CCNC(=O)c5cc(NC(=O)c6nccn6C)cn5C)cn4C)cn3C)cn2C)cc1C(=O)Nc1cn(C)c(C(=O)NCCC(=O)N2CCC(N3CCNCC3)CC2)n1` [Compound B-160], less than 6.00. Take `CCN(CC)CCCC[C@H](NC(=O)c1ccccc1)C(=O)NCCOCCOCCOCCOCCOCCNC(=O)CCNC(=O)c1nc(NC(=O)c2cc(NC(=O)CCNC(=O)c3nc(NC(=O)CCCNC(=O)c4cc(NC(=O)c5nc(NC(=O)CCNC(=O)c6cc(NC(=O)c7nccn7C)cn6C)cn5C)cn4C)cn3C)cn2C)cn1C` [Compound B-91]: the pEC50 is 6.00 to 6.30. Regarding `CN1CCC(C#CC#CCNC(=O)CCNC(=O)c2nc(NC(=O)c3cc(NC(=O)CCNC(=O)c4nc(NC(=O)CCCNC(=O)c5cc(NC(=O)c6nc(NC(=O)CCNC(=O)c7cc(NC(=O)c8nccn8C)cn7C)cn6C)cn5C)cn4C)cn3C)cn2C)CC1` [Compound B-138], the pEC50 is less than 6.00. Same read-out and setting: with `CCCNC(=O)c1cc(NC(=O)c2nc(NC(=O)CCNC(=O)c3cc(NC(=O)c4nc(NC(=O)[C@H](N)CCNC(=O)c5cc(NC(=O)c6nc(NC(=O)CCNC(=O)c7cc(NC(=O)c8nccn8C)cn7C)cn6C)cn5C)cn4C)cn3C)cn2C)cn1C` [Compound B-6] the figure was 6.00 to 6.30; with `Cn1cc(NC(=O)c2nc(NC(=O)CCNC(=O)c3cc(NC(=O)c4nccn4C)cn3C)cn2C)cc1C(=O)NCCCC(=O)Nc1cn(C)c(C(=O)NCCC(=O)Nc2cc(C(=O)Nc3cn(C)c(C(=O)NCCC(=O)Nc4ccc(C(C)(C)C)cc4)n3)n(C)c2)n1` [Compound B-180], less than 6.00. For `CCCNC(=O)c1cc(NC(=O)c2cc(NC(=O)c3nc(NC(=O)c4nc(NC(=O)[C@@H](N)CCNC(=O)c5nc(NC(=O)CCNC(=O)c6cc(NC(=O)c7nccn7C)cn6C)cn5C)cn4C)cn3C)cn2C)cn1C` [Compound B-64], the pEC50 was less than 6.00.

Staying with this assay, now noted: Homo sapiens, Fibroblast; DM1 patient fibroblasts, foci per nucleus, 48 h treatment; read-out: DM1 EC50, 48 h.
Regarding `CN(C)CCCCNC(=O)c1nc(NC(=O)c2cc(NC(=O)CCNC(=O)c3nc(NC(=O)CC4(CNC(=O)c5cc(NC(=O)c6nc(NC(=O)CCNC(=O)c7cc(NC(=O)c8nccn8C)cn7C)cn6C)cn5C)CC4)cn3C)cn2C)cn1C` [Compound B-434], the pEC50 is greater than 7.00.
